From patent US10550388B2, “Targeting pleiotrophin signaling to limit high-grade glioma invasion” (The Board of Trustees of the Leland Stanford Junior …, priority 2017, dated 2020)
Entries after “also recorded” stand apart in the source; their conditions may differ.

Experiments:
ROCK = assay: Rho-associated kinase (ROCK) activity assay in DIPG cells; type: cell-based, human; settings: DIPG cells expressing the shRNA exposed to SVZ hNPC CM or the PTN complex; vs scrambled shRNA
Description: (§1) SU-DIPG-XIII frontal lobe cells were starved in TSM base (without B27 (−A) supplement, heparin, or growth factors) for 48 hours prior to treatment. After treatment, cells were lysed in the RhoA activation assay kit cell lysis buffer (Cytoskeleton, Denver, Colo.). Lysates were incubated on ice for 1 minute, clarified by centrifugation at 10,000×g, 4° C. for 1 minute, and the supernatants were snap-frozen and stored immediately at −80° C. Protein concentrations were measured by the BCA protein assay (Thermo Scientific, Waltham, Mass.), and samples were diluted to 0.5 mg/mL by the addition of cell lysis buffer.
ROCK activation assays were performed using the Rho-associated kinase (ROCK) activity assay (Millipore, Bedford, Mass.). Cell lysates were incubated in wells of a myosin phosphatase target subunit 1 (MYPT1) pre-coated 96-well plate, for 30 minutes at 30° C. with moderate shaking. Wells were incubated in anti-phospho-MYPT1(Thr696) primary antibody (1:1000) for 1 hour with moderate shaking. Goat anti-rabbit IgG HRP secondary antibody (1:2000) was added for 1 hour with moderate shaking. Results were visualized with TMB/E substrate, incubating in the dark for 10 minutes, and absorbance was read at 450 nm. All assays were performed in triplicate.

RhoA = assay: G-LISA RhoA activation assay in DIPG cells; type: cell-based, human; settings: DIPG cells expressing the shRNA exposed to SVZ hNPC CM or the PTN complex; vs scrambled shRNA
Description: as §1
RhoA activation assays were performed using the G-LISA RhoA absorbance-based activation assay (Cytoskeleton, Denver, Colo.). Lysate samples were incubated in a 96-well plate with pre-linked Rho GTP-binding protein for 30 minutes at 4° C. shaking at 400 rpm. Wells were incubated in anti-RhoA primary antibody (1:250) at room temperature for 45 minutes shaking at 400 rpm. Secondary HRP-labeled antibody (1:62.5) was added at room temperature for 45 minutes shaking at 400 rpm. Results were visualized by addition of HRP detection reagents for 12 minutes at 37° C., and the absorbance was read at 490 nm. All assays were performed in triplicate.

PTPRZ1 = assay: Knockdown of PTPRZ1 in DIPG cells (qPCR, Western blot); type: cell-based, human; settings: vs scrambled shRNA control or no shRNA; for PTPRZ1 gene expression: qPCR
Description: Samples were run on Bio-Rad Mini-Protean TGX precast gels (Bio-Rad, Hercules, Calif.), and the protein was transferred onto polyvinylidene fluoride (PVDF) membranes. Membranes were blocked with 5% bovine serum albumin (BSA) in TBST for 1 hour, and incubated in primary antibodies diluted in 1% BSA/TBST overnight at 4° C. Primary antibodies used were: mouse anti-pleiotrophin (1:100; Santa Cruz Biotechnology, Santa Cruz, Calif.), goat anti-SPARC (1:100; R&D Systems, Minneapolis, Minn.), goat anti-SPARCL1 ([…]; R&D Systems, Minneapolis, Minn.), rabbit anti-HSP90B (GeneTex, Irvine, Calif.), rabbit anti-GRP78 (1:500, Abcam, Cambridge, Mass.), rabbit anti-PTPRZ (Thermo Fisher, Waltham, Mass.), and rabbit beta-actin (1:2000; Cell Signaling, Danvers, Mass.). Secondary antibodies conjugated to horseradish peroxidase (HRP) were added for 1 hour at room temperature. Secondary antibodies used were: goat anti-rabbit IgG-HRP (Cell Signaling, Danvers, Mass.), horse anti-mouse IgG-HRP (Cell Signaling, Danvers, Mass.), and donkey anti-goat IgG-HRP (Santa Cruz Biotechnology, Santa Cruz, Calif.). Proteins were visualized using Clarity Western ECL Substrate (Bio-Rad, Hercules, Calif.).
Cells or tissue were lysed and homogenized in TRIzol Reagent (Life Technologies, Carlsbad, Calif.) and RNA was extracted according to reagent protocol. RNA was treated with dsDNase, and cDNA was synthesized using Thermo Scientific Maxima First Strand cDNA Synthesis Kit for RT-qPCR with dsDNase (Thermo Fisher Scientific K1671). RT-PCR was performed on Eppendorf Mastercycler Realplex2 using Universal SYBR Green Supermix (BioRad, Hercules, Calif.). Differential expression was determined using the deltaCt method. Primers used were as follows: […]
For lentiviral infection, DIPG cells or neural precursor cells were exposed to shRNA-expressing lentivirus for 16 hours. Puromycin was added 48 hours after infection to select for virally infected cells. After removal of puromycin, shRNA-treated neural precursor cells were grown for 7 days (with addition of media on day 3-4) for generation of conditioned media. […]

SU-DIPG-XIII FL cells [1] = assay: Orthotopic xenograft of PTPRZ1 knockdown DIPG cells; type: in vivo, NSG mice; settings: knockdown cells xenografted to the pons, vs scrambled shRNA control cells; for DIPG cells invading the SVZ: 8 weeks following xenograft
Description: (§2) NSG mice at age P34-36 were orthotopically xenografted with SU-DIPG-XIII frontal lobe CMV-GFP-luciferase cells, in a similar procedure to as previously described (Grasso et al., supra; Venkatesh et al. (2015) Cell 161, 803-816). Briefly, a single-cell suspension of SU-DIPG-XIII frontal lobe CMV-GFP-luciferase cells at passage 16-19 was prepared in sterile HBSS immediately before beginning the xenograft procedure. 600,000 cells in 3 μL were stereotactically injected into the pons of the left hemisphere of NSG mice, through a 31-gauge burr hole. Stereotactic coordinates used were: 1 mm lateral to midline, 0.8 mm posterior to lambda suture, and 5 mm deep. Cells were injected at a rate of 0.4 μL/min using a digital pump and a 31-gauge Hamilton syringe. After infusion of cells, the syringe needle was kept in place for 2 minutes, and then withdrawn manually at a rate of 0.875 mm/min to minimize the backflow of cells.
(§3) Mice were imaged using an IVIS Spectrum to ensure tumor engraftment and monitor tumor size. Mice were anesthetized under 1% isoflurane, intraperitoneally injected with luciferin (15 mg/kg), and imaged for bioluminescence every minute until the peak total flux was reached.
For lentiviral infection, DIPG cells or neural precursor cells were exposed to shRNA-expressing lentivirus for 16 hours. Puromycin was added 48 hours after infection to select for virally infected cells. After removal of puromycin, shRNA-treated neural precursor cells were grown for 7 days (with addition of media on day 3-4) for generation of conditioned media. After removal of puromycin, shRNA-treated DIPG cells were grown for at least one passage before experimental use.

SU-DIPG-XIII FL cells [2] = assay: Matrigel invasion assay (Boyden chamber) of DIPG cells; type: cell-based, human; settings: DIPG cells expressing the shRNA; for DIPG invasion toward SVZ hNPC CM or the PTN complex: vs scrambled control; for baseline DIPG invasion toward unconditioned hNPC media: vs scrambled shRNA
Description: To test for chemoattraction and invasion toward neural precursor cell conditioned media or another candidate chemoattractant, a single-cell suspension of 100,000 DIPG cells in Tumor Stem Media (TSM) base (with B27 (−A) and heparin, without growth factors) was seeded in the top inserts of BioCoat growth factor reduced Matrigel invasion chambers (Corning, Bedford, Mass.), after rehydration of the inserts. Chemoattractant media was added to the bottom of the chamber. All conditions were plated in triplicate. After 72 hours, media was aspirated, and the non-invading cells on top of the layer of Matrigel were scrubbed off. The invading cells were fixed in 4% paraformaldehyde and then stained with 0.1% crystal violet in 10% methanol in distilled water. The number of invading cells was quantified by the intensity of the crystal violet dye on the invading side of the Matrigel. The dye was collected in 10% acetic acid, and absorbance was measured at 595 nm.
To test the ROCK or HSP90 inhibitors in the Matrigel invasion assay, the inhibitors were added to the suspension of glioma cells in TSM base (with B27 (−A) and heparin) seeded in the top inserts at the appropriate concentrations, and neural precursor cell conditioned media was plated in the bottom chambers. The rest of the procedure was performed as described above.

SU-DIPG-XIII FL cells [3] = assay: CellTiter-Glo cell viability assay; type: cell-based, human; settings: base media without growth factors, vs scrambled control or no shRNA
Description: To assess cell viability, 5,000 DIPG cells per well were seeded in base media or full growth media in a 96-well plate. Inhibitors were added at the appropriate concentrations. After 72 hours, CellTiter-Glo reagent 2.0 was added at a 1:1 ratio, and cells were lysed. Luminescence was measured after stabilization of signal for 10 minutes at room temperature.

HSP90B = assay: Knockdown of HSP90B expression in the mouse SVZ; type: in vivo; settings: lentivirus injected into the SVZ; vs scrambled shRNA control
Description: (§4) Mice used for shRNA lentivirus studies received shRNA-expressing lentivirus in the SVZ at P27-29 and DIPG cells in the left pons at P34-36. For lentiviral injections, 2 μL of shRNA-expressing lentivirus were stereotactically injected into the SVZ. Stereotactic coordinates used were: 1.3 mm lateral to midline, 0.1 mm posterior to bregma suture, and 2 mm deep. Virus was injected and the needle was withdrawn according to the same procedure as described above.
Mice were intraperitoneally injected with Avertin (tribromoethanol) for anesthesia, and then transcardially perfused with 20 mL of ice-cold PBS. Brains were dissected out and fixed in 4% paraformaldehyde in PBS overnight at 4° C., and were then transferred to 30% sucrose in PBS for cryoprotection. Brains were embedded in Tissue-Tek O.C.T. (Sakura, Torrance, Calif.). Brains from mice older than P10 were sliced into 40 μm coronal or sagittal sections using a sliding microtome (Microm HM450; Thermo Scientific, Waltham, Mass.). Brains from mice age P0 to P10 were sliced into 25 μm coronal sections using a cryostat (Leica Biosystems CM3050 S; 1058 Wetzlar, Germany). For immunohistochemistry, a 1 in 6 series of 25 μm or 40 μm sections was incubated in blocking solution (3% normal donkey serum, 0.3% Triton X-100 in TBS) at room temperature for 1 hour. […]

SU-DIPG-XIII FL cells [4] = assay: shRNA-expressing lentivirus injected into the SVZ of orthotopically xenografted mice; type: in vivo, NSG mice; settings: vs scrambled shRNA control; for DIPG cells invading the SVZ: 16 weeks following pontine xenograft
Description: as §2, §4, §3
For quantification of DIPG invasion of the SVZ after knock down of targets in the SVZ, 5 NSG mice per group were injected with shRNA-expressing lentivirus in bilateral SVZs and orthotopically xenografted with SU-DIPG-XIII FL in the left pons. Mice were perfused for analysis 16 weeks after xenograft. A 1:6 series of coronal slices from each mouse brain was immunostained and imaged, and the number of GFP^+ HNA^+ glioma cells within 200 μm of the lateral ventricles in all slices containing lateral ventricles was manually counted.
For quantification of neural stem/precursor cells in the SVZ after knock down of PTN in the SVZ, a 1:6 series of coronal slices from each mouse was immunostained and imaged, and the number of Sox2^+ neural stem/precursor cells in a 20×Z-stack was manually counted. The density of Sox2^+ cells was calculated as cells/mm^3.

[5] = listed as shRNA lentivirus targeting PTPRZ1
[6] = listed as shRNA-expressing lentivirus targeting the HSP90B1 gene

Row | Substance | ROCK activation (ROCK) | RhoA activation (RhoA) | PTPRZ protein levels (PTPRZ1; Western blot) | PTPRZ1 gene expression (PTPRZ1) | PTPRZ1 gene expression (PTPRZ1; [5]) | DIPG cells invading the SVZ (SU-DIPG-XIII FL cells [1]) | DIPG cells invading the SVZ (SU-DIPG-XIII FL cells [1]; [5]) | decrease of total tumor size (engraftment), bioluminescent signal on initial IVIS imaging (SU-DIPG-XIII FL cells [1]) [fold] | tumor growth over time (SU-DIPG-XIII FL cells [1]) | DIPG invasion toward SVZ hNPC CM or the PTN complex (SU-DIPG-XIII FL cells [2]) | DIPG invasion toward SVZ hNPC CM or the PTN complex (SU-DIPG-XIII FL cells [2]; [5]) | baseline DIPG invasion toward unconditioned hNPC media (SU-DIPG-XIII FL cells [2]) | baseline DIPG invasion toward unconditioned hNPC media (SU-DIPG-XIII FL cells [2]; [5]) | cell viability of DIPG cells expressing the shRNA (SU-DIPG-XIII FL cells [3]) | cell viability of DIPG cells expressing the shRNA (SU-DIPG-XIII FL cells [3]; [5]) | HSP90B expression in the SVZ (HSP90B) | DIPG cells invading the SVZ (SU-DIPG-XIII FL cells [4]) | DIPG cells invading the SVZ (SU-DIPG-XIII FL cells [4]; [6]) | tumor engraftment (bioluminescent flux) (SU-DIPG-XIII FL cells [4]; listed as shRNA lentivirus targeting HSP90B1) | tumor engraftment (bioluminescent flux) (SU-DIPG-XIII FL cells [4]; [6])
1 | PTPRZ1 shRNA: lentivirus-expressed shRNA against human PTPRZ1, Sigma TRCN0000356374, SEQ ID NO: 13 (CCGGATACCTAAGTCTTCGTTAATACTCGAGTATTAACGAAGACTTAGGTATTTTTTG) | abrogation of RhoA and ROCK activation; also recorded: decreased activation of RhoA and ROCK | abrogation of RhoA and ROCK activation; also recorded: decreased activation of RhoA and ROCK | effective knock down | Robust shRNA-mediated knockdown of PTPRZ1 expression | effective knock down of PTPRZ1 gene expression | significantly fewer cells expressing PTPRZ1 shRNA reached the SVZ | fewer DIPG cells with knockdown of PTPRZ1 invaded the SVZ | 10 | rate of growth was similar | partial abrogation of invasion | partially abrogates DIPG invasion | substantially decreases baseline invasion | decrease in baseline DIPG invasion | mildly decreases cell viability | mild decrease in cell viability | – | – | – | – | –
2 | sh-HSP90B1: lentivirus-expressed shRNA against mouse HSP90B1, Sigma TRCN0000071925, SEQ ID NO: 12 (CCGGGCTATTCAGTTGGATGGGTTACTCGAGTAACCCATCCAACTGAATAGCTTTTTG) | – | – | – | – | – | – | – | – | – | – | – | – | – | – | – | low HSP90B expression after knockdown | fewer orthotopically xenografted GFP^+ HNA^+ SU-DIPG-XIII FL cells invaded the SVZ | fewer DIPG cells invading the SVZ | equivalent | no effect on initial tumor engraftment
